Several values for one entry are separate records, joined by “and”; a condition that tells them apart may be missing. Equal values may be shown once.
What was measured:
[1] = target: T1, human recombinant adrenergic α2B receptor (Homo sapiens, UniProt P18089); assay: Radioligand binding, adrenergic α2B ([3H]Rauwolscine); conditions: for Ki: read-out: Ki α2B
T1 construct: expressed in transfected cells; host or cells: CHO-K1
T1 sequence (P18089 1-450): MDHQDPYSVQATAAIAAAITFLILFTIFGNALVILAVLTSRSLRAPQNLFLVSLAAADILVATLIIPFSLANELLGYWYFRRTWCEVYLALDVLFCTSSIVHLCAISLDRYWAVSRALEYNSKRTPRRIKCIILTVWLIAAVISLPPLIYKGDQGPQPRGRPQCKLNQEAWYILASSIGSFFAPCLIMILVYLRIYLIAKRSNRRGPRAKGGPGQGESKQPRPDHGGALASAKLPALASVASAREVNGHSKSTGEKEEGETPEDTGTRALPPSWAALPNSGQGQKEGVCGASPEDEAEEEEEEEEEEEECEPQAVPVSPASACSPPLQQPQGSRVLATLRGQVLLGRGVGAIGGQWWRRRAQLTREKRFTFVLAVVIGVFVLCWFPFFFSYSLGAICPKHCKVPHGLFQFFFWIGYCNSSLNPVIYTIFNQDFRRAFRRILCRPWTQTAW
Description: To evaluate in radioligand binding assays the activity of compounds of the invention, human recombinant adrenergic α2B receptor expressed in Chinese hamster ovary (CHO) K1 cells (Uhlen, S. et al, Eur. J. Pharmacol. 343(1):93, 1998) in a modified Tris-HCl buffer (50 mM Tris-HCl, pH 7.4, 12.5 mM MgCl2, 1 mM EDTA, 0.2% BSA) was used. Compounds of the invention were incubated with 2.5 nM [3H]Rauwolscine for 60 min at 25° C. Non-specific binding was estimated in the presence of 10 μM Prazosin. Receptor proteins were filtered and washed, the filters were then counted to determine [3H]Rauwolscine specifically bound. […] Compounds of the invention were tested in this biochemical assay and percent inhibition of specific binding was determined. Biochemical assay results are presented as the percent inhibition of specific binding in Table B1.

[2] = target: T2, rat adrenergic α1B receptor (Rattus norvegicus, UniProt P15823); assay: Radioligand binding, adrenergic α1B ([3H]Prazosin); conditions: [3H]Prazosin; for Percentage inhibition of ligand binding, Adrenergic α1B / inhibition at 0.03 µM / inhibition at 0.1 µM: repeat assays, each datapoint shown; for inhibition at 0.03 µM: compound at 0.03 μM; for inhibition at 0.03 µM / inhibition at 0.1 µM: read-out: Percentage inhibition of ligand binding, Adrenergic α1B
T2 construct: rat adrenergic α1B receptor obtained from Wistar Rat liver; from tissue; host or cells: Wistar rat liver
T2 sequence (P15823 1-515): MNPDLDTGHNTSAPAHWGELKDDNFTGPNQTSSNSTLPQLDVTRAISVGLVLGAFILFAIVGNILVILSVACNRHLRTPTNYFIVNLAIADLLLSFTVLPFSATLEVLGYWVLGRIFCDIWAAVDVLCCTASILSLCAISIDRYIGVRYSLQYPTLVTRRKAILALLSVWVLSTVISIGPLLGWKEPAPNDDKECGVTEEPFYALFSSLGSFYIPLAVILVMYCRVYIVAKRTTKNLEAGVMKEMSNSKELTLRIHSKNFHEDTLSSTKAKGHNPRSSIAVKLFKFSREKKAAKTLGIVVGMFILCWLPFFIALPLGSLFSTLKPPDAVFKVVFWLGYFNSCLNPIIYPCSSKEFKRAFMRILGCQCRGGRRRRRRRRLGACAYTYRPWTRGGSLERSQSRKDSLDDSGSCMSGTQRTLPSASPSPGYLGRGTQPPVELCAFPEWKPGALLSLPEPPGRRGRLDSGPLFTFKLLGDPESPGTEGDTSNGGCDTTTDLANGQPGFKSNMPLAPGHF
Description: To evaluate in radioligand binding assays the activity of compounds of the invention, rat adrenergic α1B receptor obtained from Wistar Rat liver (Garcia-S'ainz, J. et al, Biochem. Biophys. Res. Commun. 186:760, 1992; Michel, A. et al, Br. J. Pharmacol. 98:883, 1989) in a modified Tris-HCl buffer (50 mM Tris-HCl buffer, pH 7.4, 0.5 mM EDTA) was used. Compounds of the invention were incubated with 0.25 nM [^3H]Prazosin for 60 min at 25° C. Non-specific binding was estimated in the presence of 10 μM phentolamine. Receptor proteins were filtered and washed, the filters were then counted to determine [^3H]Prazosin specifically bound. […] Compounds of the invention were tested in this biochemical assay and percent inhibition of specific binding was determined. Biochemical assay results are presented as the percent inhibition of specific binding in Table B1.

[3] = target: T3, human recombinant adrenergic α2A receptor (Homo sapiens, UniProt P08913); assay: Radioligand binding, adrenergic α2A ([3H]MK-912); conditions: for Percentage inhibition of ligand binding, Adrenergic α2A / inhibition at 0.1 µM: repeat assays, each datapoint shown; for inhibition at 0.1 µM: read-out: Percentage inhibition of ligand binding, Adrenergic α2A
T3 construct: expressed in transfected cells; host or cells: insect Sf9 cells
T3 sequence (P08913 1-465): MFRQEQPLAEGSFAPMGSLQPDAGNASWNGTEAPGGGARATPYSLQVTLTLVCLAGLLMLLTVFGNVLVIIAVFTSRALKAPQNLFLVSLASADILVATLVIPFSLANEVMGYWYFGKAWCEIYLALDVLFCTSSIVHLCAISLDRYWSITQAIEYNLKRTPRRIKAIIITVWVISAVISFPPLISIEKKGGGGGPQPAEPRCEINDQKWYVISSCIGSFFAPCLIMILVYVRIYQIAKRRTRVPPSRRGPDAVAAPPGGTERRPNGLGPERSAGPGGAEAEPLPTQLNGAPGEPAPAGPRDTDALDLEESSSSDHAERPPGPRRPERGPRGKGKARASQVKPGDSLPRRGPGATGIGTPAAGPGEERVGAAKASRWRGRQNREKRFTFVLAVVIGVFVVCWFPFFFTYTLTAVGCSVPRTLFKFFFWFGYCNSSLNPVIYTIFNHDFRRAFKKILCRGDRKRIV
Description: To evaluate in radioligand binding assays the activity of compounds of the invention, human recombinant adrenergic α2A receptor expressed in insect Sf9 cells (Uhlen, S. et al, J. Pharmacol. Exp. Ther. 271:1558, 1994) in a modified Tris-HCl buffer (50 mM Tris-HCl, pH 7.4, 12.5 mM MgCl2, 2 mM EDTA) was used. Compounds of invention were incubated with 1 nM [^3H]MK-912 for 60 min at 25° C. MK912 is (2S-trans)-1,3,4,5′,6,6′,7,12b-octahydro-1′,3′-dimethyl-spiro[2H-benzofuro[2,3-a]quinolizine-2,4′(1′H)-pyrimidin]-2′(3′H)-one hydrochloride. Non-specific binding was estimated in the presence of 10 μM WB-4101 (2-(2,6-Dimethoxyphenoxyethyl)aminomethyl-1,4-benzodioxane hydrochloride). Receptor proteins were filtered and washed, the filters were then counted to determine [^3H]MK-912 specifically bound. […] Compounds of the invention were tested in this biochemical assay and percent inhibition of specific binding was determined. Biochemical assay results are presented as the percent inhibition of specific binding in Table B1.

[4] = compound at 0.03 μM, [3H]Rauwolscine, repeat assays, each datapoint shown, 0.03 µM
[5] = compound at 0.1 μM, [3H]MK-912, 0.1 µM
[6] = compound at 0.1 μM, [3H]Rauwolscine, repeat assays, each datapoint shown, read-out: Percentage inhibition of ligand binding, Adrenergic α2B

| Percentage inhibition of ligand binding, Adrenergic α2B [1, 4] | Percentage inhibition of ligand binding, Adrenergic α1B ([2]; compound at 0.1 μM, 0.1 µM) [%] | Percentage inhibition of ligand binding, Adrenergic α2A [3, 5] [%] | further results | Structure (SMILES) |
| --- | --- | --- | --- | --- |
| 77% | 61 | 11 | – | Cc1ccc2c(c1)c1c(n2CC(O)c2ccncc2)CC2CCCCN2C1 (racemic) [75a] |
| 43% | 16 | 5 | – | Cc1ccc2c(c1)c1c(n2CC(O)c2ccncc2)CC2CCCCN2C1 (racemic) [75b] |
| 11% | 59 | −2 | – | Cc1ccc2c(c1)c1c(n2CC(O)c2ccncc2)CC2CCCCN2C1 (racemic) [75c] |
| 102% | 26 | 49 | – | Cc1ccc2c(c1)c1c(n2CC(O)c2ccncc2)CC2CCCCN2C1 (racemic) [75d] |
| – | – | – | Percentage inhibition of ligand binding, Adrenergic α2B (0.03 μM) ([1]; compound at 0.03 μM, [3H]Rauwolscine, repeat datapoints each shown, 0.03 µM): 102%; Percentage inhibition of ligand binding, Adrenergic α1B (0.1 μM) ([2]; compound at 0.1 μM, repeat datapoints each shown, 0.1 µM): 57%; Percentage inhibition of ligand binding, Adrenergic α2A (0.1 μM) ([3]; compound at 0.1 μM, [3H]MK-912, repeat datapoints each shown, 0.1 µM): 29% | Cc1ccc2c(c1)c1c(n2CC(N=[N+]=[N-])c2ccncc2)CCN(C)C1 (racemic) [V-1b, 5-(2-azido-2-(pyridin-4-yl)ethyl)-2,3,4,5-tetrahydro-2,8-dimethyl-1H-pyrido[4,3-b]indole] |
| 26% and 30% | – | – | inhibition at 0.1 µM [1, 6]: 62%; Ki [1]: 27.4 nM; inhibition at 0.03 µM [2]: 18%; inhibition at 0.1 µM ([3]; compound at 0.1 μM, [3H]MK-912): 16% | Cc1ccc2c(c1)c1c(n2CC(O)c2ccncc2)CCN(C)C1 (single isomer, unassigned) [3a] |
| 46% | 58 | 7 | – | CN1CCc2c(c3cc(Cl)ccc3n2CC(O)c2ccncc2)C1 (single isomer, unassigned) [4b] |
| 29% and 38% | – | 0 | Percentage inhibition of ligand binding, Adrenergic α2B ([1]; compound at 0.1 μM, [3H]Rauwolscine, repeat assays, each datapoint shown, 0.1 µM): 57%; Ki [1]: 35 nM; inhibition at 0.1 µM ([2]; compound at 0.1 μM): 18% | Cc1ccc2c(c1)c1c(n2CC(C)(O)c2cccnc2)CCN(C)C1 (single isomer, unassigned) [5a, 1-(1,2,3,4-tetrahydro-2,8-dimethylpyrido[4,3-b]indol-5-yl)-2-(pyridin-3-yl)propan-2-ol] |
| 59% | 28 | 1 | – | CN1CCc2c(c3cc(Cl)ccc3n2CC(O)c2cccnc2)C1 (single isomer, unassigned) [7a] |
| 74% | 37 | 25 | – | CN1CCc2c(c3cc(Cl)ccc3n2CC(O)c2cccnc2)C1 (single isomer, unassigned) [7b] |
| – | 63 | 12 | inhibition at 0.03 µM ([1]; compound at 0.03 μM, [3H]Rauwolscine, repeat assays, each datapoint shown, read-out: Percentage inhibition of ligand binding, Adrenergic α2B): 49%; inhibition at 0.1 µM [1, 6]: 78%; Ki [1]: 11.7 nM; inhibition at 0.03 µM [2]: 24%; inhibition at 0.1 µM ([2]; compound at 0.1 μM): 61%; Ki [3]: 2100 nM; inhibition at 0.1 µM ([3]; compound at 0.1 μM, [3H]MK-912): 8% | Cc1ccc2c(c1)c1c(n2CC(O)c2ccncc2)CN(C)CC1 (single isomer, unassigned) [8b] |
| 23% | 11 | 4 | – | Cc1ccc2c(c1)c1c(n2CC(O)c2cccnc2)CCNC1 (single isomer, unassigned) [9a, 2-(8-methyl-1,2,3,4-tetrahydro-pyrido[4,3-b]indol-5-yl)-1-pyridin-3-yl-ethanol] |
| 50% | 10 | 10 | – | Cc1ccc2c(c1)c1c(n2CC(O)c2cccnc2)CCNC1 (single isomer, unassigned) [9b, 2-(8-methyl-1,2,3,4-tetrahydro-pyrido[4,3-b]indol-5-yl)-1-pyridin-3-yl-ethanol] |
| 34% | – | – | inhibition at 0.1 µM ([2]; compound at 0.1 μM): 30%; inhibition at 0.1 µM ([3]; compound at 0.1 μM, [3H]MK-912): 8% | OC(Cn1c2c(c3cc(Cl)ccc31)CNCC2)c1ccncc1 (single isomer, unassigned) [10a, 2-(8-chloro-1,2,3,4-tetrahydro-pyrido[4,3-b]indol-5-yl)-1-pyridin-4-yl-ethanol] |
| 91% | 28 | 15 | – | OC(Cn1c2c(c3cc(Cl)ccc31)CNCC2)c1ccncc1 (single isomer, unassigned) [10b, 2-(8-chloro-1,2,3,4-tetrahydro-pyrido[4,3-b]indol-5-yl)-1-pyridin-4-yl-ethanol] |
| – | – | – | inhibition at 0.1 µM ([2]; compound at 0.1 μM): 58%; inhibition at 0.1 µM ([3]; compound at 0.1 μM, [3H]MK-912): 23% | Cc1ccc2c(c1)c1c(n2CC(O)c2ccncc2)CN(C)CC1 (stereo not drawn) [compound 8] |

— patent US8791132B2, “Compounds and methods for treatment of hypertension” (Medivation Technologies, Inc., priority 2011, dated 2014)
